Series [1] concerns mouse. The experiment in a line: Determination of the minimum toxic dose. Format: in vivo, mouse (male). The note with it: p.o.; maximum dose 300 mg/kg; symptoms recorded for 24 hours. The protocol: DETERMINATION OF THE MINIMUM TOXIC DOSE
Maximum doses of 300 mg/kg. of the test substance are administered orally to male mice of 20-25 g. weight. The animals are observed carefully for toxicity symptoms for 3 hours. In addition, all symptoms and cases of death are recorded for a period of 24 hours after administration. Accompanying symptoms are also observed and recorded. If death- or toxic symptoms are observed, decreasing doses are administered to additional mice until no more toxic symptoms occur. The lowest dose which induces toxic symptoms is reported as the minimum toxic dose.

The next series concerns rat. The experiment in a line: Arthritis pain test on the rat (inhibition of the arthritis pain). The note with it: p.o., 3 hours after oral dosage. The format is in vivo, rat (male, strain OFA). The protocol: ARTHRITIS PAIN TEST ON THE RAT
Male rats of the strain OFA with a weight of 160-180 g. are anaesthetised by administration of 20 mg./kg. i.p. of phenobarbital sodium. 0.1 ml. of a suspension of Mycobacterium Smegmae (S1043) in paraffin oil (0.6 mg. of Mycobact./0.1 ml. of oil) are injected intracutaneously into the left rear paw. 14 days later, when a marked secondary arthritis has developed, particularly in the right rear paw, the effects of the test substances are investigated. 30 minutes before administration of the test substances, a control measurement in undertaken in which the ankle joint of the right rear paw is flexed three times and the number of sounds given out is counted. […] 3 hours after oral dosage of the test substance, the flexion procedure is repeated. Animals which either give out sound only once or not at all are regarded as being protected against pain. Between 9 and 20 rats are used per dose and the ED50 (95% confidence range) is determined by the method of Litchfield and Wilcoxon) (1949). The ED50 is designated at that dose which produces protection in 50% of the animals treated.

Series [2] relates to mouse. In words: Tail flick ray test on the mouse. Format: in vivo. The note with it: sc, 0.5 h, s.c., 30 minutes after administration. The protocol: TAIL FLICK RAY TEST ON THE MOUSE
The method is based on the procedure described by D'Amour and Smith (1941). However, non-fasting male and female mice having body weights of 16-25 g. are used instead of rats. 30 minutes before treatment with the test substance, each mouse is placed alone in a cylindrical vessel such that it cannot turn round and move forward. Its tail, lying in a narrow groove, projects out of the vessel. A particular point on the tail of each animal (at about 35 mm. from the root of the tail) is subjected to the radiant heat from a lamp of known intensity and temperature which is situated directly beneath the tail. The time in seconds required by the mouse to flick the tail out of the ray of light is determined twice, once 30 and once 15 minutes before subcutaneous administration of the test substance (10 mg./kg.). The mice for which the reaction times deviate by more than 25% are eliminated. The reaction times are again measured 15 and 30 minutes after treatment and an increase in the reaction times of more than 75% of the average values before treatment of the same mouse is regarded as an analgesic effect. The ED50 (95% confidence range) of each test substance 30 minutes after administration is regarded as that dose which increases the reaction time before treatment by more than 75% in 50% of the animals. The calculation is carried out in accordance with the method of Litchfield and Wilcoxon (1949).

The structures appear in SMILES notation. Where only a bound is given, the exact number is not on record here.

As to `CN1c2ccccc2C(c2ccsc2)=NCC1CNC(=O)c1ccc(C(F)(F)F)cc1` (stereo not shown) [Example 6, 1-Methyl-2-[(4'-trifluoromethylbenzoyl)-aminomethyl]-5-(3'-thienyl)-1H-2,3-dihydro-1,4-benzodiazepine], in the series with mouse [1], the “Minimum toxic dose in the mouse” value worked out at 300 mg/kg. Also, the ED50 (commonly the dose that gives a 50% effect, or the effect in half of the subjects) in the series on rat was found to be 2 mg/kg.

For the compound `Cc1ccsc1C1=NCC(CNC(=O)c2ccc(C#N)cc2)N(C)c2ccccc21` (stereo not shown) [Example 89], the ED50 in the series on rat turned out to be 10 mg/kg.

For the compound `Cc1ccsc1C1=NCC(CNC(=O)c2ccccc2)N(C)c2ccccc21` (stereo not shown) [Example 88], the median effective dose (ED50) in the series on mouse [2] was 8.3 mg/kg; with rat, 18 to 32 mg/kg.

On to `CN1c2ccccc2C(c2ccsc2)=NCC1CNC(=O)c1ccccc1` (stereo not shown) [Example 11], for which the ED50 with mouse [2] is 2.8 mg/kg; with rat it was ~2 mg/kg. Also, the “Minimum toxic dose in the mouse” value in the series with mouse [1] stood at 300 mg/kg.

`CN1c2ccccc2C(c2ccsc2)=NCC1CNC(=O)c1ccoc1` (stereo not shown) [Example 1, 1-Methyl-2-[(furan-3-carbonyl)-aminomethyl]-5-(3'-thienyl)-1H-2,3-dihydro-1,4-benzodiazepine]: the results for the ED50 in the series with mouse [2] and in the series on rat were 1 mg/kg and 32 to 56 mg/kg, respectively. For the same compound, in the series on mouse [1], the “Minimum toxic dose in the mouse” value was 200 mg/kg.

Consider `COc1ccc2c(c1)N(C)C(CNC(=O)c1ccc(C(F)(F)F)cc1)CN=C2c1ccsc1` (stereo not shown) [Example 12], for which the “Minimum toxic dose in the mouse” value with mouse [1] is > 300 mg/kg. The compound further came in with an ED50 in the series with rat of 32 mg/kg.

Take `Cc1ccsc1C1=NCC(CNC(=O)c2ccoc2)N(C)c2ccccc21` (stereo not shown) [Example 87]: the ED50 is 2.6 mg/kg in the series on mouse [2] and 18 to 32 mg/kg with rat.

Consider `COc1ccc2c(c1)N(C)C(CNC(=O)c1ccccc1)CN=C2c1ccsc1` (stereo not shown) [Example 5, 8-Methoxy-1-methyl-2-benzoylaminomethyl-5-(3'-thienyl)-1H-2,3-dihydro-1,4-benzodiazepine], for which the ED50 with mouse [2] was 2.7 mg/kg; with rat it was ~10 mg/kg. In the series with mouse [1], the “Minimum toxic dose in the mouse” value stood at 300 mg/kg.

As for `CN1c2cc3c(cc2C(c2ccsc2)=NCC1CNC(=O)c1cccs1)OCO3` (stereo not shown) [Example 14], the ED50 with mouse [2] is 5 mg/kg; with rat, 32 to 56 mg/kg. The “Minimum toxic dose in the mouse” value in the series with mouse [1] was 100 mg/kg.

Turning to `CN1c2ccccc2C(c2ccc(Cl)s2)=NCC1CNC(=O)c1ccc(C#N)cc1` (stereo not shown) [Example 84], the “Minimum toxic dose in the mouse” value in the series with mouse [1] is > 300 mg/kg. In the series on rat, this compound had an ED50 of 18 mg/kg.

In the case of `COc1ccc2c(c1)N(C)C(CNC(=O)c1ccsc1)CN=C2c1ccsc1` (stereo not shown) [Example 13], the ED50 in the series with mouse [2] was 10 mg/kg; with rat, 32 to 56 mg/kg. Besides, the “Minimum toxic dose in the mouse” value in the series with mouse [1] came out at 200 mg/kg.

`CN1c2ccccc2C(c2ccsc2)=NCC1CNC(=O)c1ccc(C#N)cc1` (stereo not shown) [Example 7, 1-Methyl-2-[(4-cyanobenzoyl)-aminomethyl]-5-(3'-thienyl)-1H-2,3-dihydro-1,4-benzodiazepine]: the “Minimum toxic dose in the mouse” value in the series on mouse [1] is > 300 mg/kg. This compound also gave an ED50 in the series with rat of 8.5 mg/kg.

(Values after patent US4649137A, “2-acylaminomethyl-1,4-benzodiazepine compounds, the preparation thereof, and pharmaceutical compositions containing them” (Kali-Chemie Pharma GmbH, priority 1981, dated 1987).)
